Experimental data from patent publication EP4786454A1, “HETEROARYL DERIVATIVE AND USE THEREOF” (priority 2023, dated 2025).

Assays:
MDR1-MDCK I cell line = assay: Permeability evaluation, bidirectional transport (P-gp substrate); format: in vitro ADME; conditions: 2.00 µM, 90 minutes
Experimental: (§1) The purpose of this study was to evaluate and study the P-gp substrate of the compounds in MDR1 […] cells.
(§2) Transport assay: The test sample, nadolol, and metoprolol were administered at a concentration of 2.00 µM, and digoxin was administered at a concentration of 10.0 µM. The administration was performed bidirectionally (A-B and B-A directions), with two replicates for each administration concentration. The dosing solution, receiving solution, and transport buffer were pre-incubated in a 37.0 °C water bath for 30 minutes. The cell layer was rinsed twice with transport buffer. The dosing solution and receiving solution were added to the corresponding wells of the cell plate, respectively (75.0 µL to each apical well and 250 µL to each basolateral well, respectively). After the addition of samples, the cell plate was incubated in an incubator at 37.0°C, 5.0% CO2 and saturated humidity for 90 minutes. The initial dosing solution was used as the T0 sample. After 90 minutes of incubation, samples were collected from each well and labeled as A-B receiver, B-A receiver, A-B donor, and B-A donor, respectively. After the sample collection, all samples were mixed with an appropriate volume of transport buffer and stop solution. All samples were vortexed, and then centrifuged at 20.0 °C and 3220 × g for 10 minutes. An appropriate volume of the supernatant was transferred to a sample analysis plate. After sealing the plate, the samples were stored at 2.0 to 8.0 °C if not analyzed immediately. Analysis was performed using LC-MS/MS.
(§3) Cell membrane integrity assay: After the transport assay, the integrity of the MDR1-MDCK II cell layer was assayed by the Lucifer Yellow Rejection Assay. The remaining solution in the apical and basolateral wells was removed. 75.0 µL of transport buffer containing 100 µM Lucifer Yellow was added to the apical well, and 250 µL of transport buffer was added to the basolateral well, respectively. The cell plate was incubated in a cell culture incubator at 37 °C, 5% CO2 and saturated humidity for 30 minutes. Then, 20.0 µL of sample was taken from the apical end and mixed with 60.0 µL of transport buffer, and 80.0 µL of sample was taken from the basolateral end. The relative fluorescence unit (RFU) was measured at 425/528 nm (excitation/emission) using a microplate reader.
(§4) In this study, the sample analysis of the compounds and control compounds of nadolol, metoprolol, and digoxin was performed using LC-MS/MS. The retention time of the analytes and internal standards, chromatogram acquisition, and chromatogram integration were processed using the software Analyst (Sciex, Framingham, MA, USA). […] Semi-quantitative determination was performed using the ratio of the peak area of analyte to the peak area of internal standard.
(§5) The apparent permeability coefficient (Papp, cm/s), efflux ratio (ER), and recovery rate (%Solution Recovery) were calculated using the following formulas. Papp = (VR)/(Area × Time) × ([drug]receiver)/([drug]initial, donor) = (VR)/(Area × Time) × (CR)/(C0) [formula] Efflux Ratio = (Papp (B−A))/(Papp (A−B)) [formula] %Solution Recovery = (CR × VR + CD × VD)/(C0 × VD) × 100 [formula]
(§6) VR is the volume of the receiver solution (0.0750 mL for side A, and 0.250 mL for side B); Area is the surface area of the cell monolayer (0.143 cm^2); Time is the incubation time (5400 s); C0 is the initial peak area ratio of the test compound or the control compound at the donor; VD is the volume of the donor (0.0750 mL for side A, and 0.250 mL for side B); CD and CR are the peak area ratios of the test compound or the control compound at the donor and the receiver, respectively. The transmittance of Lucifer Yellow (%Lucifer Yellow) was calculated using the following formula: %Lucifer Yellow = (VBasolateral × RFUBasolateral)/(VApical × RFUApical + VBasolateral × RFUBasolateral) × 100 [formula]
(§7) RFUApical and RFUBasolateral are the relative fluorescence units of Lucifer Yellow at the apical and basolateral ends, respectively. […]

P-gp (MDR1) = assay: as above; format: in vitro ADME; conditions: dog, MDCK-MDR1; efflux ratio Papp (B-A)/Papp (A-B); read-out: HMDR1 ER
Experimental: as §1, §2, §3, §4, §5, §6, §7

Row | SMILES | HMDR1 Papp A to B (MDR1-MDCK I cell line) | HMDR1 Papp B to A (MDR1-MDCK I cell line) | efflux ratio at 90 min, 2 µM (P-gp (MDR1)) | efflux ratio (P-gp (MDR1))
1 | CC(C)(C)CC(=O)Nc1nc2c(F)cc(C#N)cn2c1-c1ccc(OC(F)(F)F)cc1 [Compound 1] | 3.64 10^-6 cm/s | 18.3 10^-6 cm/s | 5.04 | –
2 | CC(C)(C)CC(=O)Nc1nc2c(F)cc(C#N)cn2c1C1=CCCC1 [Compound 3] | 7.52 10^-6 cm/s | 31.2 10^-6 cm/s | – | 4.15
3 | CC(C)(C)CC(=O)Nc1nc2c(F)cc(C#N)cn2c1C12CC(C1)C2 [Compound 5] | 12.4 10^-6 cm/s | 42.4 10^-6 cm/s | – | 3.41
